Assay results taken from patent US20140128357A1, “METHODS OF PRODUCING AND USING BRASSINOSTEROIDS TO PROMOTE GROWTH, REPAIR AND MAINTENANCE OF SKELETAL MUSCLE AND SKIN” (Rutgers University, priority 2010, published 2014).

Legend:
[1] = system: TNF-α, TGF-β and ICAM-1 mRNA in wounds; assay: Cytokine and chemokine mRNA in wound tissue, qPCR; assay type: in vivo; conditions: day 10 post-wounding, 10 μg/mouse topically
Procedure: Cutaneous would healing is characterized by an initial inflammatory response. To evaluate the effect of brassinosteroids on inflammation in wound healing, mRNA levels of proinflammatory cytokines TNF-α and TGF-β and an adhesion chemokine ICAM-1 were measured in the wound tissue of control and treated mice on day 10 post-wounding and treatment with HB, positive control (CGS-21680), or negative control (vehicle).
Total RNA was extracted from fibroblasts using Trizol (Invitrogen, Carlsbad, Calif.). RNA was quantified spectrophotometrically by absorbance measurements at 260 and 280 nm using the NanoDrop reader (NanoDrop Technologies, Wilmington, Del.). Quality of RNA was assessed by gel electrophoresis. RNA was then treated with DnaseI (Invitrogen, Carlsbad, Calif.) to remove traces of DNA contamination and the cDNAs were synthesized with 2.5 μg of RNA using Stratascript reverse transcriptase (Stratagene, Santa Clara, Calif.) according to the manufacturers' protocols. Quantitative PCR was performed in duplicate essentially as described previously (Komarnytsky et al., Int. J. Obes. 35: 236-43, 2011) using the following gene-specific primers (IDT, Coralville, Iowa) selected using the Primer Express 2.0 software (Applied Biosystems, Foster City, Calif.): β-actin, forward primer 5′-GGGAAATCGTGCGTGACATT-3′ (SEQ ID NO: 5), and reverse primer 5′-GCG GCA GTG GCC ATC TC-3′ (SEQ ID NO: 6). Target gene expression of the housekeeping gene β-actin was assigned a value of 1. Samples were subjected to a melting curve analysis to confirm the amplification specificity. The relative change in the […] with respect to the endogenous control gene was determined using 2ΔΔCT method (Winer et al., Anal. Biochem. 270: 41-9, 1999).

[2] = system: gastrocnemius muscle mRNA (insulin signaling pathway, myogenic transcription factors); assay: Gene expression in gastrocnemius muscle, insulin signaling PCR array and RT-PCR; assay type: in vivo, rat; conditions: 60 mg/kg oral 24 d
Procedure: The body weight of each animal and the total amount of food consumed (accounted for spillage) were recorded every 2 d for the duration of the experiment. At the end of the experiment, blood was collected by heart puncture after CO2 inhalation and animal body composition was assessed by DEXA dual-energy X-ray absorptiometry analysis using a Lunar Prodigy Densitometer (GE Healthcare, Waukesha, Wis.). At necropsy, tissue weights were recorded. Tissue samples were collected by snap-freezing in liquid nitrogen and stored at −80° C. for further studies. Total RNA was isolated using Trizol, its quantity and purity were determined using a NanoDrop (Nanodrop Technologies, Wilmington, Del.).
Pooled RNA samples obtained from frozen skeletal muscle (gastrocnemius muscle biopsies of vehicle- (Ctr) and HB-treated animals) were used in a rat insulin signaling PCR array to measure mRNA response to HB. […] However, the magnitude of the differences varied (FIG. 11A).

[3] = Body composition and blood biochemistry, rats on high-protein diet, 24 d oral HB (Protocol 2); assay type: in vivo, rat; conditions: for Bone mineral content / Fat mass / Lean mass: DEXA
Procedure: Six-week-old male Wistar rats (180-220 g, Charles River Laboratories, MA) were housed in individual chambers in a room maintained at a constant room temperature with 12 h light-dark cycle. Animals had free access to food and water. Animals were allowed to adapt to new conditions for 7 d and handling the animals was carried out daily during this time to reduce the stress of physical manipulation. Animals were randomized into groups according to bodyweight 1 d prior to dosing.
Protocol 2: Three groups of Wistar rats (n=8), fed a high-protein diet containing 39.4% protein, 10.0% fat, 4.3% fiber, and 37.0% carbohydrates, resulting in 3.93 kcal/g energy value (#5779 diet, Testdiet/Purina, Richmond, Ind.), were gavaged daily for 24 d with 1 ml of vehicle (5% DMSO in corn oil), 20 or 60 mg/kg HB. All procedures and measurements followed protocol 1.
Blood samples were taken from overnight-fasted animals by heart puncture, collected in EDTA-coated tubes, centrifuged 1,500 g for 20 min, and separated plasma was stored at −80° C. until analysis. Glucose was measured in blood samples using a Lifescan glucometer (Johnson and Johnson, New Brunswick, N.J.). […] Plasma triglycerides and total cholesterol were measured by enzymatic colorimetric assays (Wako Diagnostics, Richmond, Va.). Total testosterone in plasma samples was quantified by an ELISA assay (DRG Diagnostics, Marburg, Germany).

[4] = system: collagen and elastin in skin; assay: Collagen and elastin in skin of rats given oral HB (Example 16); assay type: in vivo, rat; conditions: 20 and 60 mg/kg oral daily 24 d, written in present tense
Procedure: To evaluate the potential anabolic effects of plant brassinosteroids on the skin of animals, 20 and 60 mg/kg body weight of HB (HB20 and HB60, respectively) are orally administered daily to healthy rats fed normal diet for 24 d.
Collagen and elastin production are measured in the skin of animals treated with HB versus their control counterparts. Protein degradation of collagen and elastin is measured in the skin of animals treated with HB versus their control counterparts, e.g., by collagen or elastin ELISAs. The amount of collagen and elastin protein present in the skin of animals treated with HB is measured versus their control counterparts.

[5] = system: orchiectomized (ORX) Wistar rats; assay: 10-d Hershberger assay in ORX rats, subcutaneous HB (Protocol 4); assay type: in vivo, rat; conditions: for increase in gastrocnemius muscle mass: subcutaneous
Procedure: Protocol 4: Four-week-old sham-operated (sham, n=6) or orchiectomized (ORX, n=24) Wistar rats (Charles River Laboratories, MA) were subject to a 10-d Hershberger assay (surgically castrated peri-pubertal adult model) under the following experimental conditions: sham, ORX (vehicle), ORX (0.4 mg/kg HB subcutaneously), ORX (4 mg/kg HB subcutaneously), and ORX (0.4 mg/kg testosterone propionate subcutaneously, serving as a positive control for the assay). All procedures and measurements followed protocol 1. […]

[6] = pooled gastrocnemius RNA, PCR array
[7] = 0.4 mg/kg subcutaneous daily 10 d
[8] = 4 mg/kg subcutaneous daily 10 d

## CC[C@@H](C(C)C)[C@H](O)[C@@H](O)[C@@H](C)[C@H]1CC[C@H]2[C@@H]3COC(=O)[C@H]4C[C@H](O)[C@H](O)C[C@]4(C)[C@H]3CC[C@]12C [Compound 1, (22S,23S,24S)-2α,3α,22,23-tetrahydroxy-24 ethyl-β-homo-7-oxo-5α-cholestane-6-one]
[1]
  ICAM-1 mRNA in wound tissue: significant suppression
  TGF-β mRNA in wound tissue: weak effect on the downregulation
  TNF-α mRNA in wound tissue: nearly complete downregulation
[2]
  expression of EIF2B1: No changes
[2]; RT-PCR (FIG. 11C)
  MYF5 mRNA upregulation: 1.3 fold
  MYF6 mRNA upregulation: 1.3 fold
  MYOD1 mRNA upregulation: 2.1 fold
  MYOG (myogenin) mRNA upregulation: 1.7 fold
[2]; [6]
  ADRA1D mRNA upregulation: 6.5 fold
  FBP2 mRNA upregulation: 4.5 fold
  IGF-2 mRNA upregulation: 1.4 fold
  IGFBP1 mRNA upregulation: 2.5 fold
  SREBP-1 mRNA upregulation: 2.5 fold
[3]; 20 mg/kg oral daily 24 d
  Body weight: 337.6 ± 6.4 g
  Body weight gain: 98.3 ± 5.2 g
  Gastrocnemius muscle: 1.98 ± 0.01 g
  Bone mineral content: 7.5 ± 0.2 g
  Fat mass: 68.6 ± 3.1 g
  Lean mass: 246.8 ± 7.4 g
[3]; 60 mg/kg oral daily 24 d
  Body weight: 335.8 ± 5.1 g
  Body weight gain: 91.1 ± 3.2 g
  Gastrocnemius muscle: 2.17 ± 0.03 g
  Bone mineral content: 7.4 ± 0.1 g
  Fat mass: 61.2 ± 3.8 g
  Lean mass: 258.6 ± 2.7 g
[4]
  collagen and elastin production in skin: increases collagen and elastin production in skin
[5]; [7]
  Bulbocavernosus/levator ani weight: 131.3 ± 7.1 mg
  Cowper's gland weight: 11.3 ± 0.5 mg
  Glans penis weight: 50.7 ± 1.9 mg
  Seminal vesicles weight: 29.0 ± 3.1 mg
  Ventral prostate weight: 18.3 ± 1.2 mg
[5]; [8]
  Bulbocavernosus/levator ani weight: 147.5 ± 6.9 mg
  Cowper's gland weight: 10.5 ± 0.3 mg
  Glans penis weight: 56.3 ± 3.3 mg
  Seminal vesicles weight: 30.2 ± 1.2 mg
  Ventral prostate weight: 23.2 ± 1.2 mg
[5]; one-fold dose of positive control (0.4 mg/kg)
  increase in gastrocnemius muscle mass: 2.8%
[5]; ten-fold dose of positive control (4 mg/kg)
  increase in gastrocnemius muscle mass: 9.1%
